Results published in patent publication US20240376097A1, “BCL-2 Inhibitor” (BeiGene Ltd., priority 2020, published 2024).
Where two headings read alike, the source gives them in different places.

What was measured:
[1] = biological target: Recombinant human Bcl-2 protein (Homo sapiens (Human), UniProt P10415); assay: Bcl-2 TR-FRET Assay; format: binding
How it was run: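 Compounds were pre-incubated with 0.05 nM recombinant Bcl-2 for 0.5 h at room temperature in potassium phosphate buffer, pH 7.5. FITC-Bak peptide (0.5 nM) and Tb-cryptate antibody were then added for 1 h. Percent inhibition from TR-FRET signals gave IC50 values.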

[2] = biological target: recombinant human Bcl-2-G101V protein (Homo sapiens (Human), UniProt P10415, G101V); assay: Bcl-2-G101V TR-FRET Assay; format: binding; conditions: Bcl-2 G101V mutant, TR-FRET; read-out: Biochemical assay (IC50, nM) Bcl-2 G101V
How it was run: (§1)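 Percent inhibition of the Bcl-2-G101V–ligand interaction was computed from the 490 nm to 520 nm emission ratio after 337 nm excitation, over increasing compound concentrations; a four-parameter logistic fit gave IC50.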

[3] = tested on: recombinant human Bcl-2-G101V protein; assay: Bcl-2-G101V TR-FRET Assay; format: binding; conditions: ratio of biochemical IC50 Bcl-2 G101V / Bcl-2 WT
How it was run: as §1

[4] = tested on: RS4;11 (BCL-2 dependent acute lymphoblastic leukemia cell line); assay: RS4;11 Cell Proliferation Assay; format: cell-based; conditions: Homo sapiens, RS4-11, RS4;11 cells, read-out: Cellular proliferation assay (IC50, nM) RS4
Description: Biological Example: RS4;11 Cell Proliferation Assay
(§2) The BCL-2 dependent acute lymphoblastic leukemia (ALL) cell line, RS4;11, was used to study the cellular potency of BCL-2 inhibitors. The cells (ATCC, CRL-1873) were cultured in RPMI-1640 complete medium (RPMI-1640 medium, HEPES (Gibco, 22400-105) supplemented with 10% fetal bovine serum (FBS) (Gibco, 10099-1441), 100 unit/ml penicillin and 100 μg/ml streptomycin (Gibco, 15140122)) and maintained in a humidified chamber at 37° C. containing 5% CO2. Each compound was serially diluted with 1 μM as the maximum concentration. To test the apoptotic effect of the compounds, the cells were seeded at 50,000 in 180 μl per well in 96-well plates and treated with 10-point dilution series of each compound for 48 hrs at 37° C. Cell viability was assessed after the treatment using CellTiter-GLO luminescent assay (Promega) according to the manufacturer's recommendations. Briefly, 30 μl of CellTiter-GLO reagent was added into 200 μl of cell culture. Mixture was agitated on an orbital shaker for 5 min to ensure cell lysis followed by 7 min incubation at room temperature to allow development and stabilization of luminescent signals, which corresponded to the quantity of ATP and thus the quantity of metabolically active cells. Luminescent signals were measured using PHERAstar FS reader (BMG). Mean IC50 values were determined with GraphPad Prism software.

[5] = tested on: BCL-2 G101V knock-in cell line H96 (derive from RS4;11); assay: Bcl 2-G101V Knock-In RS4;11 Cell Proliferation Assay; format: cell-based; conditions: Homo sapiens, RS4;11 Bcl-2 G101V knock-in clone H96, 48 hrs, CellTiter-GLO, read-out: Cellular proliferation assay (IC50, nM) RS4
Description: Biological Example: Bcl 2-G101V Knock-In RS4;11 Cell Proliferation Assay
(1) RS4;11 H96 Bcl 2-G101V Knock-In Cell Line Generation
Briefly, RS4;11 BCL2-G101V knock-in cell pool was generated using Crisper/Cas9 gene editing system and the BCL2-G101V knock-in single clone H96 was picked from the knock-in cell pool and validated by WES (whole exome-sequencing) and RNA-seq.
The BCL-2 dependent acute lymphoblastic leukemia (ALL) cell line, RS4;11(ATCC, CRL-1873), was cultured in RPMI-1640 complete medium (RPMI-1640 medium, HEPES (Gibco, 22400-105) supplemented with 10% fetal bovine serum (FBS) (Gibco, 10099-1441), 100 unit/ml penicillin and 100 μg/ml streptomycin (Gibco, 15140122)) and maintained in a humidified chamber at 37° C. containing 5% CO2.
To obtain BCL2-G101V knock-in cell pool, RS4;11 was co-transfected with the Cas9-gRNA which also expressed GFP label, and the Donor gene which contained the BCL2-G101V mutant sequence. After 48 hrs of electroporation, the GFP positive cells were collected through FACSAriaIII cell sorting system. Cell pool was recovered for 3 days and then cultured under 2 nM ABT-199 stress for 4 weeks. […] Then cells were plated in 96 well U-plate with 1 cell/well for 10000 wells for single clone selection. After 3-5 weeks growing, clones were successively screened by PCR sequencing. And three BCL2-G101V knock-in clones: H96, H142 and H233, have been picked out.
Three clones were validated by genome DNA and cDNA(mRNA) PCR sequencing, and BCL-2, BCL-xL and MCL-1 expression using Western Blot. The H96 clone was also validated by WES (whole exome-sequencing) and RNA-seq.
(2) Bcl 2-G101V Knock-In RS4;11 Cell Proliferation Assay
as §2, with “G101V knock-in” for “dependent acute lymphoblastic leukemia (ALL)”, “line H96 (derive from RS4;11) were” for “line, RS4;11, was”, “cells” for “cells (ATCC, CRL-1873)”, “μM or 10 μM” for “μM”, “90” for “180”, “100” for “200”

[6] = biological target: recombinant human Bcl-2 D103Y protein (Homo sapiens (Human), UniProt P10415, D103Y); assay: Bcl-2-D103Y Biochemical Assay (TR-FRET); format: binding; conditions: TR-FRET, FITC labeled Bak peptide
How it was run: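 Recombinant human Bcl-2 D103Y binding to its ligand measured by TR-FRET (ex 337 nm, em 490/520 nm) with increasing compound concentrations. Percent inhibition from the 490/520 nm ratio; IC50 from four-parameter logistic fit.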

[7] = Bcl-2 wild type, TR-FRET, read-out: Biochemical assay (IC50, nM) Bcl-2 WT

`COc1cccc(CN2CCN(C3CC4(CCN(c5ccc(C(=O)NS(=O)(=O)c6ccc(NC[C@H]7CC[C@](C)(O)CC7)c([N+](=O)[O-])c6)c(Oc6cnc7[nH]ccc7c6)c5)CC4)C3)C(c3ccccc3C(C)C)C2)c1` (stereo partly shown) [Example 44, 2-((1H-pyrrolo[2,3-b]pyridin-5-yl)oxy)-N-((4-((((1r,4r)-4-hydroxy-4-methylcyclohexyl)methyl)amino)-3-nitrophenyl)sulfonyl)-4-(2-(2-(2-isopropylphenyl)-4-(3-methoxybenzyl)piperazin-1-yl)-7-azaspiro[3.5]nonan-7-yl) benzamide] was tested, and the IC50 [1, 7] was 0.3 nM, the IC50 [2] was 0.84 nM and the “Ratio of Bcl-2 G101V/WT” value [3] was 2.8. It also gave an IC50 [4] of 0.5 nM and an IC50 [5] of 3.31 nM.
With `COc1ccc(CN2CCN(C3CC4(CCN(c5ccc(C(=O)NS(=O)(=O)c6cc7c(c([N+](=O)[O-])c6)N[C@H](C[C@H]6CC[C@H](O)CC6)CO7)c(Oc6cnc7[nH]ccc7c6)c5)CC4)C3)[C@H](c3ccccc3C(C)C)C2)cc1` [Example 221] the IC50 [1, 7] was 0.08 nM, the IC50 [2] was 0.27 nM and the “Ratio of Bcl-2 G101V/WT” value [3] was 3.4. For the same molecule, the IC50 [4] was 0.16 nM and the IC50 [5] was 0.92 nM.
With `CCc1ccc(CN2CCN(C3CC4(CCN(c5ccc(C(=O)NS(=O)(=O)c6ccc(NC[C@H]7CC[C@](C)(O)CC7)c([N+](=O)[O-])c6)c(Oc6cnc7[nH]ccc7c6)c5)CC4)C3)C(c3ccccc3C(C)C)C2)cc1` (stereo partly shown) [Example 153] the IC50 [1, 7] was 0.6 nM, the IC50 [2] was 2.7 nM and the “Ratio of Bcl-2 G101V/WT” value [3] was 4.4. The IC50 [4] was 0.75 nM and the IC50 [5] was 6.48 nM.
`COc1ccc(CN2CCN(C3CC4(C3)CN(c3ccc(C(=O)NS(=O)(=O)c5ccc(NC[C@H]6CC[C@](C)(O)CC6)c([N+](=O)[O-])c5)c(Oc5cnc6[nH]cc(F)c6c5)c3)C4)[C@@H](c3ccccc3C(C)C)C2)cc1OC` [Example 141b, 4-(6-((S)-4-(3,4-dimethoxybenzyl)-2-(2-isopropylphenyl)piperazin-1-yl)-2-azaspiro[3.3]heptan-2-yl)-2-((3-fluoro-1H-pyrrolo[2,3-b]pyridin-5-yl)oxy)-N-((4-((((1r,4r)-4-hydroxy-4-methylcyclohexyl)methyl)amino)-3-nitrophenyl)sulfonyl)benzamide] was tested, and the IC50 [1, 7] was 0.059 nM, the IC50 [2] was 2.3 nM and the “Ratio of Bcl-2 G101V/WT” value [3] was 40. The IC50 [4] was 0.659 nM and the IC50 [5] was 4.09 nM.
In the case of `CCN1CCN(C2CC3(CCN(c4ccc(C(=O)NS(=O)(=O)c5ccc(NC[C@H]6CC[C@](C)(O)CC6)c([N+](=O)[O-])c5)c(Oc5cnc6[nH]ccc6c5)c4)CC3)C2)C(c2ccccc2C(C)C)C1` (stereo partly shown) [Example 2], the IC50 [1, 7] is reported as 0.011 nM, the IC50 [2] is reported as 0.25 nM and the “Ratio of Bcl-2 G101V/WT” value [3] is reported as 22.7. The IC50 [4] was 0.53 nM and the IC50 [5] was 3.94 nM.
For `COc1ccc(CN2CCN(C3CC4(C3)CN(c3ccc(C(=O)NS(=O)(=O)c5ccc(NCC67CC8CC(C6)C(OC)C(C8)C7)c([N+](=O)[O-])c5)c(Oc5cnc6[nH]cc(F)c6c5)c3)C4)[C@H](c3ccccc3C(C)C)C2)cc1` (stereo partly drawn) [Example 356, 2-((3-fluoro-1H-pyrrolo[2,3-b]pyridin-5-yl)oxy)-4-(6-((R)-2-(2-isopropylphenyl)-4-(4-methoxybenzyl)piperazin-1-yl)-2-azaspiro[3.3]heptan-2-yl)-N-((4-((((1S,3R,7S)-4-methoxyadamantan-1-yl)methyl)amino)-3-nitrophenyl)sulfonyl) benzamide], the IC50 [1, 7] was 1.5 nM, the IC50 [2] was 4.2 nM and the “Ratio of Bcl-2 G101V/WT” value [3] was 2.9. It also gave an IC50 [4] of 0.31 nM and an IC50 [5] of 1.7 nM.
In the case of `CC(C)c1ccccc1[C@@H]1CN(Cc2ccc(N3CCOCC3)cc2)CCN1C1CC2(C1)CN(c1ccc(C(=O)NS(=O)(=O)c3ccc(NC[C@H]4CC[C@](C)(O)CC4)c([N+](=O)[O-])c3)c(Oc3cnc4[nH]cc(F)c4c3)c1)C2` [Example 368], the IC50 [1, 7] is reported as 0.064 nM, the IC50 [2] is reported as 0.29 nM and the “Ratio of Bcl-2 G101V/WT” value [3] is reported as 4.5. For the same molecule, the IC50 [4] was 0.096 nM and the IC50 [5] was 0.24 nM.
`CC(C)c1ccccc1[C@@H]1CN(Cc2cccc3c2OCCO3)CCN1C1CC2(C1)CN(c1ccc(C(=O)NS(=O)(=O)c3ccc(NC[C@H]4CC[C@](C)(O)CC4)c([N+](=O)[O-])c3)c(Oc3cnc4[nH]ccc4c3)c1)C2` [Example 149a, 2-((1H-pyrrolo[2,3-b]pyridin-5-yl)oxy)-4-(6-((R)-4-((2,3-dihydrobenzo[b][1,4]dioxin-5-yl)methyl)-2-(2-isopropylphenyl)piperazin-1-yl)-2-azaspiro[3.3]heptan-2-yl)-N-((4-((((1r,4r)-4-hydroxy-4-methylcyclohexyl)methyl)amino)-3-nitrophenyl)sulfonyl)benzamide] was tested, and the IC50 [1, 7] was 0.11 nM, the IC50 [2] was 0.27 nM and the “Ratio of Bcl-2 G101V/WT” value [3] was 2.6. The IC50 [4] was 0.17 nM and the IC50 [5] was 0.67 nM.
`CC(C)c1ccccc1C1CN(Cc2cnn(C)c2)CCN1C1CC2(CCN(c3ccc(C(=O)NS(=O)(=O)c4ccc(NC[C@H]5CC[C@](C)(O)CC5)c([N+](=O)[O-])c4)c(Oc4cnc5[nH]ccc5c4)c3)CC2)C1` (single isomer, unassigned) [Example 22a, 2-((1H-pyrrolo[2,3-b]pyridin-5-yl)oxy)-N-((4-((((1r,4r)-4-hydroxy-4-methylcyclohexyl)methyl)amino)-3-nitrophenyl)sulfonyl)-4-(2-((R or S)-2-(2-isopropylphenyl)-4-((1-methyl-1H-pyrazol-4-yl)methyl)piperazin-1-yl)-7-azaspiro [3.5]nonan-7-yl)benzamide] showed an IC50 [1, 7] of 0.0079 nM, an IC50 ([1]; wild type Bcl-2, unit inferred, read-out: Bcl-2 WT) of 0.0079 nM and an IC50 [2] of 0.064 nM. It also gave an IC50 [4] of 0.25 nM, an IC50 [5] of 1.35 nM and an IC50 [6] of 0.041 nM.
